Source: ChEMBL document CHEMBL6115028, “An Amazing 30-Year Journey around the DABO Family: A Medicinal Chemistry Lesson on a Versatile Class of Non-nucleoside HIV-1 Reverse Transcriptase Inhibitors” (J Med Chem, 2025)
In brackets after ≈: the same amount, converted by molar mass.

Assays:
[1] = target: T1, Human immunodeficiency virus type 1 reverse transcriptase (Human immunodeficiency virus 1, UniProt Q72547); test: Inhibition of wild type HIV-1 Reverse transcriptase
[2] = test system: Human immunodeficiency virus 1; test: Antiviral activity against wild-type HIV-1 IIIB infected in human MT4 cells assessed as reduction in virus-induced cytopathic effect incubated for 5 days by MTT assay; assay type: functional, organism-based; conditions: Human immunodeficiency virus 1, IIIB, MT4, 120 h
MT4 [3] = test: Cytotoxicity against human MT4 cells assessed as reduction in cell growth after 5 days by MTT assay; assay type: functional; conditions: MT4, 120 h, time 5 day
[4] = test system: Human immunodeficiency virus 1; test: Antiviral activity against wild type HIV-1 NL4-3 infected in human MT4 cells assessed as reduction in viral replication measured for 72 hrs by ELISA analysis; assay type: functional, organism-based; conditions: Human immunodeficiency virus 1, NL4-3, MT4, 72 h
[5] = Binding affinity to HIV-1 reverse transcriptase Y181L mutant assessed as inhibition constant; parameters: species or system Human immunodeficiency virus 1
Reverse transcriptase [6] = target: T2, Reverse transcriptase (Human immunodeficiency virus 1, UniProt Q9WKE8, K103N); test: Binding affinity to HIV-1 reverse transcriptase K103N mutant assessed as inhibition constant
[7] = test system: Human immunodeficiency virus 1; test: Antiviral activity against wild type HIV-1 NL4-3 infected in human MT4 cells assessed as reduction in viral replication; assay type: functional, organism-based; conditions: Human immunodeficiency virus 1, NL4-3, MT4; read-out: EC50
[8] = test system: Human immunodeficiency virus 1; test: Antiviral activity against HIV-1 NL4-3 harboring infected Y181C mutant infected in human MT4 cells assessed as reduction in viral replication; assay type: functional, organism-based; conditions: Human immunodeficiency virus 1, NL4-3, MT4
[9] = test system: Human immunodeficiency virus 1; test: Antiviral activity against HIV-1 NL4-3 harboring infected K103N mutant infected in human MT4 cells assessed as reduction in viral replication; assay type: functional, organism-based; conditions: Human immunodeficiency virus 1, NL4-3, MT4
[10] = test system: Human immunodeficiency virus 1; test: Antiviral activity against NNRTI-resistant HIV-1 harboring E138K mutant infected in human MT4 cells assessed as protection against virus-induced cytopathic effect by MTT assay; assay type: functional, organism-based; conditions: Human immunodeficiency virus 1, MT4
Reverse transcriptase [11] = target: T2, Reverse transcriptase; test: Inhibition of HIV-1 Reverse transcriptase K103N mutant
[12] = test system: Human immunodeficiency virus 1; test: Antiviral activity against HIV-1 NL4-3 harboring infected Y188L mutant infected in human MT4 cells assessed as reduction in viral replication; assay type: functional, organism-based; conditions: Human immunodeficiency virus 1, NL4-3, MT4
[13] = Selectivity index, ratio of CC50 for human MT4 cells to EC50 for antiviral activity against HIV1 infected in human MT4 cells; assay type: toxicity, cell-based; conditions: read-out: Ratio CC50/EC50
MT4 [14] = test: Cytotoxicity against human MT4 cells assessed as reduction in […] incubated for 4 days by MTT assay; assay type: functional; conditions: MT4, 96 h, time 4 day
[15] = test system: Human immunodeficiency virus 1; test: Antiviral activity against HIV1 IIIB infected in human MT4 cells assessed as reduction in virus-induced cytopathic effect incubated for 4 days by MTT assay; assay type: functional, organism-based; conditions: Human immunodeficiency virus 1, IIIB, MT4, 96 h
[16] = test system: Human immunodeficiency virus 1; test: Antiviral activity against wild type HIV-1 IIIB infected in human MT4 cells assessed as protection against virus-induced cytopathic effect incubated for 5 days by MTT assay; assay type: functional; conditions: Human immunodeficiency virus 1, IIIB, MT4, 120 h; time 5 day; read-out: ED50 (the source's name)
[17] = test system: Human immunodeficiency virus 1; test: Antiviral activity against HIV-1 3B infected in human MT4 cells assessed as reduction in viral replication incubated for 5 days by MTT assay; assay type: functional, organism-based; conditions: Human immunodeficiency virus 1, 3B, MT4, 120 h
MT4 [18] = test: Cytotoxicity against human MT4 cells assessed as reduction in cell growth incubated for 5 days by MTT assay; assay type: functional; conditions: MT4, 120 h, time 5 day
[19] = Cytotoxicity against human PBMC cells; assay type: toxicity, cell-based
[20] = Toxicity in African green monkey Vero cells assessed as reduction in cell viability incubated for 72 hrs by MTT assay; assay type: cell-based; conditions: chlorocebus sabaeus, read-out: TD50
[21] = Toxicity in human C8166 cells assessed as reduction in cell viability incubated for 72 hrs by MTT assay; assay type: cell-based; conditions: read-out: TD50
[22] = test system: Human immunodeficiency virus 1; test: Antiviral activity against HIV-1 IIIB infected in human C8166 cells assessed as reduction in viral replication measured for 3 days; assay type: functional; conditions: Human immunodeficiency virus 1, IIIB, C8166, 72 h; time 3 day; read-out: ED50 (the source's name)
Human alphaherpesvirus 1 = test: Antiviral activity against HSV-1 infected in Vero cells by plaque reduction assay; assay type: functional; conditions: Human alphaherpesvirus 1, Vero; read-out: ED50 (the source's name)
MT4 [23] = test: Cytotoxicity against human MT4 cells; assay type: functional
[24] = test system: Human immunodeficiency virus 1; test: Antiviral activity against wild type HIV-1 IIIB infected in human MT4 cells assessed as protection against virus-induced cytopathic effect incubated for 72 hrs by MTT assay; assay type: functional, organism-based; conditions: Human immunodeficiency virus 1, IIIB, MT4, 72 h
[25] = test system: Human immunodeficiency virus 1; test: Antiviral activity against HIV-1 infected in human MT4 cells; assay type: functional, organism-based; conditions: Human immunodeficiency virus 1, MT4
[26] = target: T1, Human immunodeficiency virus type 1 reverse transcriptase; test: Inhibition of recombinant HIV-1 reverse transcriptase associated RNA-dependent DNA polymerase activity

Which results are given for `CCCNc1nc(C(C)c2c(F)cccc2F)c(C)c(=O)[nH]1` (stereo not drawn)?
IC50 [1]: 30 nM; EC50 [2]: 20 nM; CC50 (MT4 [3]): > 200000 nM

For `CCN(C)c1nc(C(C)c2c(F)cccc2F)c(C)c(=O)[nH]1` (stereo not drawn), which EC50 [4] is on record?
Its EC50 is 3 nM.

And the Ki [5]?
Its Ki is 4000 nM.

And the Ki (Reverse transcriptase [6])?
The Ki was 500 nM.

For `Cc1c(C(C)c2c(F)cccc2F)nc(N(C)C(C)C)[nH]c1=O` (stereo not drawn), which EC50 [4] is on record?
Its EC50 is 5 nM.

And the Ki [5]?
Its Ki is 1190 nM.

And the Ki (Reverse transcriptase [6])?
The Ki was 80 nM.

Which results are given for `Cc1c(C(C)c2c(F)cccc2F)nc(N(C)Cc2ccc([N+](=O)[O-])cc2)[nH]c1=O` (stereo not drawn)?
EC50 [7]: 10 nM; EC50 [8]: 814 nM; EC50 [9]: 518 nM; EC50 [10]: 518 nM

Which results are given for `COc1ccc(CN(C)c2nc(C(C)c3c(F)cccc3F)cc(=O)[nH]2)cc1` (stereo not drawn)?
EC50 [7]: 2 nM; IC50 (Reverse transcriptase [11]): 1050 nM; EC50 [8]: 1610 nM; EC50 [9]: 3 nM; EC50 [12]: 10 nM

For `COc1ccc(CN(C)c2nc(C(C)c3c(F)cccc3F)c(C)c(=O)[nH]2)cc1` (stereo not drawn), which EC50 [7] is on record?
Its EC50 is 3 nM.

What about the EC50 [8] of the same molecule?
The EC50 was 80 nM.

What about the EC50 [9] of the same molecule?
The EC50 was 102 nM.

And the EC50 [10]?
The EC50 was 102 nM.

With `CCCN(C)c1nc(C(C)c2c(F)cccc2F)c(C)c(=O)[nH]1` (stereo not drawn) as the molecule, how does the EC50 [4] read?
The EC50 was 5 nM.

What about the Ki [5] of the same molecule?
Its Ki is 1430 nM.

And the Ki (Reverse transcriptase [6])?
The Ki was 170 nM.

Which selectivity ratio [13] does the source give for `CCC(C)Sc1nc(O)cc(Cc2cccc3ccccc23)n1` (stereo not drawn) here?
The selectivity ratio was over 909.

And the CC50 (MT4 [14])?
The CC50 was over 300000 nM.

And the EC50 [15]?
The EC50 was 330 nM.

Which EC50 [16] does the source give for `CCOC1CSc2nc(=O)c(CC)c(Cc3cc(C)cc(C)c3)n21` (stereo not drawn) here?
The EC50 was 700 nM.

For `CCC(C)Sc1nc(Cc2cc(C)cc(C)c2)c(Br)c(=O)[nH]1` (stereo not drawn), which EC50 [17] is on record?
Its EC50 is 6700 nM.

And the CC50 (MT4 [18])?
The CC50 was 153000 nM.

With `C=CCc1c(Cc2cc(C)cc(C)c2)nc(SCC2OCCC(C)O2)[nH]c1=O` (stereo not drawn) as the molecule, how does the EC50 [17] read?
The EC50 was 550 nM.

And the CC50 (MT4 [18])?
The CC50 was over 100000 nM.

For `Nc1cc(Cl)nc(Sc2ccccc2)n1`, which CC50 [19] is on record?
The CC50 was 207000 nM.

For `COc1ccc(CNc2nc(C(C)c3c(F)cccc3F)cc(=O)[nH]2)cc1` (stereo not drawn), which EC50 [7] is on record?
The EC50 was 3 nM.

What about the IC50 (Reverse transcriptase [11]) of the same molecule?
Its IC50 is 5000 nM.

What about the EC50 [8] of the same molecule?
The EC50 was 60 nM.

What about the EC50 [9] of the same molecule?
The EC50 was 2230 nM.

And the EC50 [12]?
The EC50 was over 5000 nM.

Which CC50 at 72 h [20] does the source give for `CCCCOc1nc(Cc2ccc(OC)cc2)cc(=O)[nH]1` here?
Its CC50 at 72 h is 100 µg/mL (≈ 347 µM).

And the CC50 at 72 h [21]?
Its CC50 at 72 h is 100 µg/mL (≈ 347 µM).

What about the EC50 [22] of the same molecule?
The EC50 was 25 µg/mL (≈ 86.7 µM).

What about the EC50 (Human alphaherpesvirus 1) of the same molecule?
Its EC50 is 50 µg/mL (≈ 173 µM).

Which results are given for `COc1cccc(Sc2nc(Cc3cc(C)cc(C)c3)c(C)c(=O)[nH]2)c1`?
CC50 (MT4 [23]): > 100000 nM; EC50 [24]: 1600 nM

For `CCc1c(Cc2cc(C)cc(C)c2)nc2n(c1=O)COCCS2`, which EC50 [16] is on record?
Its EC50 is 1600 nM.

For `CCC(C)Sc1nc(Cc2cc(C)cc(C)c2)cc(=O)[nH]1` (stereo not drawn), which EC50 [17] is on record?
Its EC50 is 1200 nM.

What about the CC50 (MT4 [18]) of the same molecule?
The CC50 was 150000 nM.

For `COc1ccc(Cc2cc(N)nc(OC)n2)cc1`, which CC50 at 72 h [20] is on record?
Its CC50 at 72 h is 50 µg/mL (≈ 204 µM).

And the CC50 at 72 h [21]?
Its CC50 at 72 h is 50 µg/mL (≈ 204 µM).

And the EC50 [22]?
The EC50 was 12.5 µg/mL (≈ 51 µM).

What about the EC50 (Human alphaherpesvirus 1) of the same molecule?
The EC50 was 25 µg/mL (≈ 102 µM).

Which results are given for `Cc1c(C(C)c2c(F)cccc2F)nc(NC2CCCCC2)[nH]c1=O` (stereo not drawn)?
IC50 [1]: 35 nM; EC50 [2]: 20 nM; CC50 (MT4 [3]): 90000 nM

For `CSCCSc1nc(C2(c3c(F)cccc3F)CC2)c(C)c(=O)[nH]1`, which selectivity ratio [13] is on record?
Its selectivity ratio is 2330.

And the CC50 (MT4 [23])?
Its CC50 is 14000 nM.

And the EC50 [25]?
The EC50 was 5 nM.

Which results are given for `Cc1ccccc1Cc1nc(SC2CCCCC2)[nH]c(=O)c1C`?
IC50 [26]: 1300 nM; selectivity ratio [13]: > 506; CC50 (MT4 [14]): > 304000 nM; EC50 [15]: 600 nM

Which EC50 [16] does the source give for `CCc1c(Cc2cc(C)cc(C)c2)n2c(nc1=O)SCCOC2` here?
Its EC50 is 600 nM.

Which results are given for `COc1ccc(C2CC2CNc2nc(C(C)c3c(F)cccc3F)cc(=O)[nH]2)cc1` (stereo not drawn)?
EC50 [7]: 1 nM; IC50 (Reverse transcriptase [11]): 880 nM; EC50 [8]: 100 nM; EC50 [9]: 130 nM; EC50 [12]: > 5000 nM
